Assay results as given in patent US8629168B2, “Benzoxazoles and oxazolopyridines being useful as janus kinases inhibitors” (priority 2006, dated 2014).

What follows are molecules tested against T1, GST-JAK2(808-1132) (Homo sapiens, UniProt O60674) (assay: EPK JAK/TYK-kinase family profiling assay (Caliper mobility shift), JAK2). Conditions: Caliper mobility shift assay of Example 187, 20 μM ATP, read-out: IC50 with Test in present Example.
T1 construct: GST-JAK2(808-1132) is purchased from Invitrogen; purchased Invitrogen (Carlsbad, USA) #4288
T1 sequence (O60674 808-1132): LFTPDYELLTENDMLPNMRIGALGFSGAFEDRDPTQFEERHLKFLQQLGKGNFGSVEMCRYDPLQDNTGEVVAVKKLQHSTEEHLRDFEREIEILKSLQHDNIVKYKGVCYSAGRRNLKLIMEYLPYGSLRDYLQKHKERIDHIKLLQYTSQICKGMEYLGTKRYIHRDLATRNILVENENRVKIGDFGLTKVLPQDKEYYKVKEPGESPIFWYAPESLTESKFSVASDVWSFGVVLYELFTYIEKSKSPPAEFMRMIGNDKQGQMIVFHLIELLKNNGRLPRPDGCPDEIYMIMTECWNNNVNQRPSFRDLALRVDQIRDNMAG
Type: biochemical
Excerpt: All four kinases of the JAK/TYK-kinase family are used as purified recombinant GST-fusion proteins, containing the active kinase domains. GST-JAK1(866-1154), GST-JAK3(811-1124), and GST-TYK2(888-1187) are expressed and purified by affinity chromatography. GST-JAK2(808-1132) is purchased from Invitrogen (Carlsbad, USA, #4288).
The kinase assays are based on the Caliper mobility shift assay using the LabChip 3000 systems. This technology is similar to capillary electrophoresis and uses charge driven separation of substrate and product in a microfluidic chip.
All kinase reactions are performed in 384 well microtiter plates in a total reaction volume of 18 μl. The assay plates are prepared with 0.1 μl per well of test compound in the appropriate test concentration, as described under the section “preparation of compound dilutions”. The reactions are started by combining 9 μl of substrate mix (consisting of peptide and ATP) with 9 μl of kinase dilution. The reactions are incubated for 60 minutes at 30° C. and stopped by adding 70 μl of stop buffer (100 mM Hepes, 5% DMSO, 0.1% Coating reagent, 10 mM EDTA, 0.015% Brij 35).
Fluorescently labeled synthetic peptides are used as substrates in all reactions. […] Specific assay conditions are described in Table 1:
The terminated reactions are transferred to a Caliper LabChip 3000 reader (Caliper Life Sciences, Mountain View, Calif., USA) and the turnover of each reaction is measured by determining the substrate/product ratio.
Test compounds are dissolved in DMSO (10 mM) and transferred into 1.4 mL flat bottom or V-shaped Matrix tubes carrying a unique 2D matrix chip by individual compound hubs. The numbers of these chips are distinctively linked to the individual compound identification numbers. The stock solutions are stored at −20° C. if not used immediately. For the test procedure the vials are defrosted and identified by a scanner whereby a working sheet is generated that guides the subsequent working steps.
Compound dilutions are made in 96 well plates. This format enabled the assay of maximally 40 individual test compounds at 8 concentrations (single points) including 4 reference compounds. The dilution protocol includes the production of pre-dilution plates, master plates and assay plates:
Pre-dilution plates: 96 polypropylene well plates are used as pre-dilution plates. A total of 4 pre-dilution plates are prepared including 10 test compounds each on the plate positions A1-A10, one standard compound at A11 and one DMSO control at A12. All dilution steps are done on a Hamilton STAR robot (Hamilton, Co., Reno, Nev., USA).
Master plates: 100 μL of individual compound dilutions including standard compound and controls of the 4 “pre-dilution plates” are transferred into a 384 “master plate” including the following concentrations 1,820, […], 182, 54.6, 18.2, 5.46, 1.82 and 0.546 μM, respectively in 90% of DMSO.
Assay plates: Identical assay plates are then prepared by pipetting 100 nL each of compound dilutions of the master plates into 384-well “assay plates”. In the following the compounds are mixed with 9 μL of assays components plus 9 μL enzyme corresponding to a 1:181 dilution steps enabling the final concentration of 10, 3.0, 1.0, 0.3, 0.1, 0.03, 0.01 and 0.003 μM, respectively. The preparation of the master plates are handled by the Matrix PlateMate Plus robot (Thermo Fisher Scientific, Handforth, Cheshire, United Kingdom) and replication of assay plates by the HummingBird robot (Genomic Solutions, Inc., Ann Arbor, Mich., USA).
For `CCN1CCN(c2ccc(Nc3nc4cccc(-c5cc(F)c(CN6CCOCC6)c(F)c5)c4o3)cc2C)CC1` [Example 98, [7-(3,5-Difluoro-4-morpholin-4-ylmethyl-phenyl)-benzooxazol-2-yl]-[4-(4-ethyl-piperazin-1-yl)-3-methyl-phenyl]-amine], the IC50 was 5.2 nM. With `COCCNC(=O)c1ccc(Nc2nc3cccc(-c4ccc(CC(=O)N5CCOCC5)cc4)c3o2)cc1` [Example 147, N-(2-Methoxy-ethyl)-4-{7-[4-(2-morpholin-4-yl-2-oxo-ethyl)-phenyl]-benzooxazol-2-ylamino}-benzamide] the IC50 was 28 nM. `Cc1cc(-c2cccc3nc(Nc4ccc(N5CCN(C6CC6)CC5)c(C)c4)oc23)ccc1C(=O)N1CCOCC1` [Example 155, (4-{2-[4-(4-Cyclopropyl-piperazin-1-yl)-3-methyl-phenylamino]-benzooxazol-7-yl}-2-methyl-phenyl)-morpholin-4-yl-methanone] showed an IC50 of 13.5 nM. Work on `Cc1cc(Nc2nc3cccc(-c4cc(F)c(CN5CCOCC5)c(F)c4)c3o2)ccc1C(=O)N(C)C` [Example 68, 4-[7-(3,5-Difluoro-4-morpholin-4-ylmethyl-phenyl)-benzooxazol-2-ylamino]-2,N,N-trimethyl-benzamide] yielded an IC50 of 19 nM. For `Cc1cc(Nc2nc3cccc(-c4cc(F)c(CN5CCOCC5)c(F)c4)c3o2)ccc1C(=O)NCCN(C)C` [Example 122, 4-[7-(3,5-Difluoro-4-morpholin-4-ylmethyl-phenyl)-benzooxazol-2-ylamino]-N-(2-dimethylamino-ethyl)-2-methyl-benzamide], the IC50 was 11.1 nM. `CCN1CCN(c2ccc(Nc3nc4cccc(-c5ccc(C(=O)N6CCOCC6)c(F)c5)c4o3)cc2C)CC1` [Example 94, (4-{2-[4-(4-Ethyl-piperazin-1-yl)-3-methyl-phenylamino]-benzooxazol-7-yl}-2-fluoro-phenyl)-morpholin-4-yl-methanone] gave an IC50 of 6.9 nM. Work on `Cc1cc(Nc2nc3cccc(-c4ccc(C(=O)N5CCOCC5)c(F)c4)c3o2)ccc1C(=O)N(C)C` [Example 78, 4-{7-[3-Fluoro-4-(morpholine-4-carbonyl)-phenyl]-benzooxazol-2-ylamino}-2, N,N-trimethyl-benzamide] yielded an IC50 of 4.5 nM. With `Cc1cc(Nc2nc3cccc(-c4ccc(C(=O)N5CCOCC5)c(C)c4)c3o2)ccc1CN1CCOCC1` [Example 166, {2-Methyl-4-[2-(3-methyl-4-morpholin-4-ylmethyl-phenylamino)-benzooxazol-7-yl]-phenyl}-morpholin-4-yl-methanone] the IC50 was 11.1 nM. `CN1CCN(c2cccc(Nc3nc4cccc(-c5cc(F)c(CN6CCS(=O)(=O)CC6)c(F)c5)c4o3)c2)CC1` [Example 128, {7-[4-(1,1-Dioxo-1lambda*6*-thiomorpholin-4-ylmethyl)-3,5-difluoro-phenyl]-benzooxazol-2-yl}-[3-(4-methyl-piperazin-1-yl)-phenyl]-amine] showed an IC50 of 19 nM. `Cc1cc(Nc2nc3cccc(-c4ccc(C[S+](C)[O-])cc4)c3o2)ccc1C(=O)N(C)C` (stereo not drawn) [Example 81, 4-[7-(4-Methanesulfinylmethyl-phenyl)-benzooxazol-2-ylamino]-2,N,N-trimethyl-benzamide] was tested, and the IC50 was 17 nM. Work on `Cc1cc(Nc2nc3cccc(-c4ccc(S(C)(=O)=O)cc4)c3o2)ccc1N1CCN(C(C)C)CC1` [Example 105, [4-(4-Isopropyl-piperazin-1-yl)-3-methyl-phenyl]-[7-(4-methanesulfonyl-phenyl)-benzooxazol-2-yl]-amine] yielded an IC50 of 20 nM. Molecule `Cc1cc(Nc2nc3cccc(-c4cc(F)c(CN5CCS(=O)(=O)CC5)c(F)c4)c3o2)ccc1N1CCOCC1` [Example 164, {7-[4-(1,1-Dioxo-1lambda*6*-thiomorpholin-4-ylmethyl)-3,5-difluoro-phenyl]-benzooxazol-2-yl}-(3-methyl-4-morpholin-4-yl-phenyl)-amine] has an IC50 of 7.25 nM. With `COCCN1CCN(c2ccc(Nc3nc4cccc(-c5cc(F)c(CN6CCS(=O)(=O)CC6)c(F)c5)c4o3)cc2C)CC1` [Example 108, {7-[4-(1,1-Dioxo-1lambda*6*-thiomorpholin-4-ylmethyl)-3,5-difluoro-phenyl]-benzooxazol-2-yl}-{4-[4-(2-methoxy-ethyl)-piperazin-1-yl]-3-methyl-phenyl}-amine] the IC50 was 10.3 nM. `CN1CCN(c2ccc(Nc3nc4cccc(-c5ccc(C(C)(C)C(=O)N6CCOCC6)cc5)c4o3)cc2)CC1` [Example 151, 2-Methyl-2-(4-{2-[4-(4-methyl-piperazin-1-yl)-phenylamino]-benzooxazol-7-yl}-phenyl)-1-morpholin-4-yl-propan-1-one] gave an IC50 of 27.5 nM. In the case of `CCN(CC)C(=O)c1ccc(Nc2nc3cccc(-c4cc(F)c(CN5CCNCC5)c(F)c4)c3o2)cc1C` [Example 118, 4-[7-(3,5-Difluoro-4-piperazin-1-ylmethyl-phenyl)-benzooxazol-2-ylamino]-N,N-diethyl-2-methyl-benzamide], the IC50 is reported as 43 nM. `Cc1cc(-c2cccc3nc(Nc4ccc(N5CCN(CCN(C)C)CC5)c(C)c4)oc23)ccc1C(=O)N1CCOCC1` [Example 102, [4-(2-{4-[4-(2-Dimethylamino-ethyl)-piperazin-1-yl]-3-methyl-phenylamino}-benzooxazol-7-yl)-2-methyl-phenyl]-morpholin-4-yl-methanone] showed an IC50 of 5.65 nM. For `Cc1cc(Nc2nc3cccc(-c4ccc(CN5CCOCC5)c(F)c4)c3o2)ccc1C(=O)N1CCCC1` [Example 67, {4-[7-(3-Fluoro-4-morpholin-4-ylmethyl-phenyl)-benzooxazol-2-ylamino]-2-methyl-phenyl}-pyrrolidin-1-yl-methanone], the IC50 was 14 nM. In the case of `Cc1cc(Nc2nc3cccc(-c4cc(F)c(CN5CCS(=O)(=O)CC5)c(F)c4)c3o2)ccc1N1CCN(C(C)C)CC1` [Example 101, {7-[4-(1,1-Dioxo-1lambda*6*-thiomorpholin-4-ylmethyl)-3,5-difluoro-phenyl]-benzooxazol-2-yl}-[4-(4-isopropyl-piperazin-1-yl)-3-methyl-phenyl]-amine], the IC50 is reported as 3.6 nM. `CC(=O)NC1Cc2ccc(Nc3nc4cccc(-c5ccc(CN6CCOCC6)c(F)c5)c4o3)cc2C1` (stereo not drawn) [Example 132, N-{5-[7-(3-Fluoro-4-morpholin-4-ylmethyl-phenyl)-benzooxazol-2-ylamino]-indan-2-yl}-acetamide] gave an IC50 of 21 nM. For `C[S+]([O-])c1ccc(Nc2nc3cccc(-c4ccc(CC(=O)N5CCOCC5)cc4)c3o2)cc1` (stereo not drawn) [Example 135, 2-{4-[2-(4-Methanesulfinyl-phenylamino)-benzooxazol-7-yl]-phenyl}-1-morpholin-4-yl-ethanone], the IC50 was 18 nM. `O=S1(=O)CCN(Cc2c(F)cc(-c3cccc4nc(Nc5ccc(N6CCN(C7CC7)CC6)cc5)oc34)cc2F)CC1` [Example 114, [4-(4-Cyclopropyl-piperazin-1-yl)-phenyl]-{7-[4-(1,1-dioxo-1lambda*6*-thiomorpholin-4-ylmethyl)-3,5-difluoro-phenyl]-benzooxazol-2-yl}-amine] showed an IC50 of 14.1 nM. Work on `Cc1cc(Nc2nc3cccc(-c4ccc(C(=O)N5CCS(=O)(=O)CC5)cc4)c3o2)ccc1CN1CCOCC1` [Example 165, (1,1-Dioxo-1lambda*6*-thiomorpholin-4-yl)-{4-[2-(3-methyl-4-morpholin-4-ylmethyl-phenylamino)-benzooxazol-7-yl]-phenyl}-methanone] yielded an IC50 of 11 nM. `Cc1cc(-c2cccc3nc(Nc4ccc(C(=O)N5CCCC5)c(C)c4)oc23)ccc1CN1CCOCC1` [Example 110, {2-Methyl-4-[7-(3-methyl-4-morpholin-4-ylmethyl-phenyl)-benzooxazol-2-ylamino]-phenyl}-pyrrolidin-1-yl-methanone] gave an IC50 of 88 nM. `CN1CCN(c2ccc(Nc3nc4cccc(-c5ccc(C(=O)N6CCS(=O)(=O)CC6)c(F)c5)c4o3)cc2)CC1` [Example 80, (1,1-Dioxo-1lambda*6*-thiomorpholin-4-yl)-(2-fluoro-4-{2-[4-(4-methyl-piperazin-1-yl)-phenylamino]-benzooxazol-7-yl}-phenyl)-methanone] showed an IC50 of 6.2 nM.
